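Briefly, cells in 96-well plates were exposed to five compound concentrations for 48 h, and endpoints were estimated by linear interpolation. TGI marks complete inhibition of growth.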
Legend:
Test in all cases: NCI tumour cell line growth inhibition, 48 h
DU-145 prostate = tested on: DU-145 prostate
SK-MEL-5 melanoma = tested on: SK-MEL-5 melanoma
UACC-257 melanoma = tested on: UACC-257 melanoma
SF-268 CNS = tested on: SF-268 CNS
CCRF-CEM leukemia = tested on: CCRF-CEM leukemia
MDA-MB-435 = tested on: MDA-MB-435
MDA-N = tested on: MDA-N
SK-OV-3 ovarian = tested on: SK-OV-3 ovarian
OVCAR-5 ovarian = tested on: OVCAR-5 ovarian
MCF7 breast = tested on: MCF7 breast
A549 NSCLC = tested on: A549 NSCLC
MDA-MB-231 breast = tested on: MDA-MB-231 breast
MOLT-4 leukemia = tested on: MOLT-4 leukemia
RPMI-8226 leukemia = tested on: RPMI-8226 leukemia
CAKI-1 renal = tested on: CAKI-1 renal
HCT-15 colon = tested on: HCT-15 colon
UACC-62 melanoma = tested on: UACC-62 melanoma
RXF 393 renal = tested on: RXF 393 renal
HCC-2998 colon = tested on: HCC-2998 colon
COLO 205 colon = tested on: COLO 205 colon
HOP-92 NSCLC = tested on: HOP-92 NSCLC
M14 melanoma = tested on: M14 melanoma
SW-620 colon = tested on: SW-620 colon
SNB-75 CNS = tested on: SNB-75 CNS
NCI-H522 lung = tested on: NCI-H522 lung
HL-60(TB) leukemia = tested on: HL-60(TB) leukemia
OVCAR-3 ovarian = tested on: OVCAR-3 ovarian
ACHN renal = tested on: ACHN renal
HT29 colon = tested on: HT29 colon
KM12 colon = tested on: KM12 colon
SK-MEL-2 melanoma = tested on: SK-MEL-2 melanoma
OVCAR-4 ovarian = tested on: OVCAR-4 ovarian
HCT-116 colon = tested on: HCT-116 colon
SR leukemia = tested on: SR leukemia
UO-31 renal = tested on: UO-31 renal
PC-3 prostate = tested on: PC-3 prostate
SF-295 CNS = tested on: SF-295 CNS
EKVX NSCLC = tested on: EKVX NSCLC
MALME-3M melanoma = tested on: MALME-3M melanoma
HOP-62 NSCLC = tested on: HOP-62 NSCLC
SK-MEL-28 melanoma = tested on: SK-MEL-28 melanoma
U251 CNS = tested on: U251 CNS
NCI-H460 lung = tested on: NCI-H460 lung
NCI-H226 lung = tested on: NCI-H226 lung
OVCAR-8 ovarian = tested on: OVCAR-8 ovarian
LOX IMVI melanoma = tested on: LOX IMVI melanoma
SN12C renal = tested on: SN12C renal
IGROV1 ovarian = tested on: IGROV1 ovarian
T-47D breast = tested on: T-47D breast
786-0 renal = tested on: 786-0 renal
NCI-H23 lung = tested on: NCI-H23 lung
K-562 leukemia = tested on: K-562 leukemia
HS 578T breast = tested on: HS 578T breast
NCI/ADR-RES ovarian = tested on: NCI/ADR-RES ovarian
SNB-19 CNS = tested on: SNB-19 CNS
A498 renal = tested on: A498 renal
SF-539 CNS = tested on: SF-539 CNS
BT-549 breast = tested on: BT-549 breast
TK-10 renal = tested on: TK-10 renal

Measured: TGI

CN(C)C(=O)c1nnsc1NN=O
not listed: A498 renal | SF-539 CNS | BT-549 breast | TK-10 renal
> 100 µM: all other assays above

CN(C)S(=O)(=O)n1ccnc1
not listed: DU-145 prostate | CCRF-CEM leukemia | UACC-62 melanoma | HL-60(TB) leukemia | HT29 colon | SR leukemia | OVCAR-8 ovarian | HS 578T breast
> 100 µM: all other assays above
